# Columns and labels:
# [1] = Stability in Mouse Plasma; format: in vitro ADME; details: for half-life: mouse, plasma
# [2] = Stability in SGF without pepsin; format: physicochemical
# [3] = Stability in SGF with pepsin; format: physicochemical
# physchem = details: buffer, pH 6.5
# [4] = Table 8, if calculated T½ < 0, T½ reported as 9999 min
smiles,measurement,setting,value
"CC(C)[N+](C)(CCOC(=O)C1c2ccccc2Oc2ccccc21)C(C)C [Propantheline, reference compound]",Remaining Percentage,"[1]; Table 9, 0 min",100.00%
same,Remaining Percentage,"[1]; Table 9, 15 min",85.78%
same,Remaining Percentage,"[1]; Table 9, 30 min",70.74%
same,Remaining Percentage,"[1]; Table 9, 60 min",29.46%
same,Remaining Percentage,"[1]; Table 9, 120 min",8.74%
same,Remaining Percentage,"[1]; Table 11, 0 min",100.00%
same,Remaining Percentage,"[1]; Table 11, 15 min",80.81%
same,Remaining Percentage,"[1]; Table 11, 30 min",64.04%
same,Remaining Percentage,"[1]; Table 11, 60 min",34.86%
same,Remaining Percentage,"[1]; Table 11, 120 min",9.05%
same,half-life,"[1]; Table 9, read-out: T½",0.543 h
same,half-life,"[1]; Table 11, read-out: T½",0.568 h
C[N+](C)(CCc1c[nH]c2ccccc12)COP(=O)([O-])O [VLS-02-23],Remaining Percentage,"[1]; Table 11, 0 min",100.00%
same,Remaining Percentage,"[1]; Table 11, 15 min",114.24%
same,Remaining Percentage,"[1]; Table 11, 30 min",110.21%
same,Remaining Percentage,"[1]; Table 11, 60 min",109.95%
same,Remaining Percentage,"[1]; Table 11, 120 min",91.16%
same,half-life,"[1]; Table 11, read-out: T½",9.47 h
same,T½,[2]; Table 10,166.65 h
same,Remaining Percentage,"[2]; Table 10, 0 min",100.00%
same,Remaining Percentage,"[2]; Table 10, 30 min",98.76%
same,Remaining Percentage,"[2]; Table 10, 60 min",107.08%
same,Remaining Percentage,"[2]; Table 10, 120 min",101.90%
same,Remaining Percentage,"[2]; Table 10, 240 min",108.80%
same,T½,Stability in PBS pH 6.5; Table 10,166.65 h
same,Remaining Percentage,"Stability in PBS pH 6.5; Table 10, 0 min",100.00%
same,Remaining Percentage,"Stability in PBS pH 6.5; Table 10, 30 min",104.71%
same,Remaining Percentage,"Stability in PBS pH 6.5; Table 10, 60 min",106.37%
same,Remaining Percentage,"Stability in PBS pH 6.5; Table 10, 120 min",107.29%
same,Remaining Percentage,"Stability in PBS pH 6.5; Table 10, 240 min",117.35%
same,Remaining Percentage,"[3]; Table 10, 0 min",100.00%
same,Remaining Percentage,"[3]; Table 10, 30 min",96.70%
same,Remaining Percentage,"[3]; Table 10, 60 min",106.43%
same,Remaining Percentage,"[3]; Table 10, 120 min",102.36%
same,Remaining Percentage,"[3]; Table 10, 240 min",96.82%
same,half-life,"[3]; Table 10, read-out: T½",104 h
CCCCC(=O)Oc1cccc2ccn(CCN(C)C)c12 [VLS-03-1],Remaining Percentage,"[1]; Table 9, 0 min",100.00%
same,Remaining Percentage,"[1]; Table 9, 15 min",0.00%
same,Remaining Percentage,"[1]; Table 9, 30 min",0.00%
same,Remaining Percentage,"[1]; Table 9, 60 min",0.00%
same,Remaining Percentage,"[1]; Table 9, 120 min",0.00%
same,Peak Area of MRM: 205.0/159.8 (analyte VLS-03-1 Parent),[2]; 0 min,4.53E+04
same,Peak Area of MRM: 205.0/159.8 (analyte VLS-03-1 Parent),[2]; 30 min,4.75E+04
same,Peak Area of MRM: 205.0/159.8 (analyte VLS-03-1 Parent),[2]; 60 min,4.51E+04
same,Peak Area of MRM: 205.0/159.8 (analyte VLS-03-1 Parent),[2]; 120 min,4.66E+04
same,Peak Area of MRM: 205.0/159.8 (analyte VLS-03-1 Parent),[2]; 240 min,4.57E+04
same,Remaining Percentage,"[2]; Table 8, 0 min",100.00%
same,Remaining Percentage,"[2]; Table 8, 30 min",106.25%
same,Remaining Percentage,"[2]; Table 8, 60 min",99.72%
same,Remaining Percentage,"[2]; Table 8, 120 min",104.22%
same,Remaining Percentage,"[2]; Table 8, 240 min",103.22%
same,T½,[2]; [4],166.65 h
same,Peak Area of MRM: 205.0/159.8 (analyte VLS-03-1 Parent),[2]; VLS-03-1 standard,3.75E+04
same,Peak Area of MRM: 205.0/159.8 (analyte VLS-03-1 Parent),Stability in PBS pH 6.5; 0 min,5.04E+04
same,Peak Area of MRM: 205.0/159.8 (analyte VLS-03-1 Parent),Stability in PBS pH 6.5; 30 min,4.71E+04
same,Peak Area of MRM: 205.0/159.8 (analyte VLS-03-1 Parent),Stability in PBS pH 6.5; 60 min,4.71E+04
same,Peak Area of MRM: 205.0/159.8 (analyte VLS-03-1 Parent),Stability in PBS pH 6.5; 120 min,4.86E+04
same,Peak Area of MRM: 205.0/159.8 (analyte VLS-03-1 Parent),Stability in PBS pH 6.5; 240 min,4.75E+04
same,Remaining Percentage,"Stability in PBS pH 6.5; Table 8, 0 min",100.00%
same,Remaining Percentage,"Stability in PBS pH 6.5; Table 8, 30 min",96.32%
same,Remaining Percentage,"Stability in PBS pH 6.5; Table 8, 60 min",99.71%
same,Remaining Percentage,"Stability in PBS pH 6.5; Table 8, 120 min",100.03%
same,Remaining Percentage,"Stability in PBS pH 6.5; Table 8, 240 min",101.35%
same,T½,Stability in PBS pH 6.5; [4],166.65 h
same,Peak Area of MRM: 205.0/159.8 (analyte VLS-03-1 Parent),Stability in PBS pH 6.5; VLS-03-1 standard,4.49E+04
same,Peak Area of MRM: 205.0/159.8 (analyte VLS-03-1 Parent),[3]; 0 min,5.72E+04
same,Peak Area of MRM: 205.0/159.8 (analyte VLS-03-1 Parent),[3]; 30 min,5.37E+04
same,Peak Area of MRM: 205.0/159.8 (analyte VLS-03-1 Parent),[3]; 60 min,5.01E+04
same,Peak Area of MRM: 205.0/159.8 (analyte VLS-03-1 Parent),[3]; 120 min,5.48E+04
same,Peak Area of MRM: 205.0/159.8 (analyte VLS-03-1 Parent),[3]; 240 min,5.27E+04
same,Remaining Percentage,"[3]; Table 8, 0 min",100.00%
same,Remaining Percentage,"[3]; Table 8, 30 min",101.74%
same,Remaining Percentage,"[3]; Table 8, 60 min",90.49%
same,Remaining Percentage,"[3]; Table 8, 120 min",102.16%
same,Remaining Percentage,"[3]; Table 8, 240 min",96.47%
same,half-life,[3]; [4],149 h
same,Peak Area of MRM: 205.0/159.8 (analyte VLS-03-1 Parent),[3]; VLS-03-1 standard,4.22E+04
CC(OC(=O)C(C)C)OC(=O)n1cc(CCN(C)C)c2ccccc21 (stereo not shown) [VLS-03-10],Remaining Percentage,"[1]; Table 9, 0 min",100.00%
same,Remaining Percentage,"[1]; Table 9, 15 min",0.00%
same,Remaining Percentage,"[1]; Table 9, 30 min",0.00%
same,Remaining Percentage,"[1]; Table 9, 60 min",0.00%
same,Remaining Percentage,"[1]; Table 9, 120 min",0.00%
same,Peak Area of MRM: 188.7/144.0 (analyte VLS-03-10 Parent),[2]; 0 min,5.29E+03
same,Peak Area of MRM: 188.7/144.0 (analyte VLS-03-10 Parent),[2]; 30 min,4.98E+03
same,Peak Area of MRM: 188.7/144.0 (analyte VLS-03-10 Parent),[2]; 60 min,4.66E+03
same,Peak Area of MRM: 188.7/144.0 (analyte VLS-03-10 Parent),[2]; 120 min,4.93E+03
same,Peak Area of MRM: 188.7/144.0 (analyte VLS-03-10 Parent),[2]; 240 min,4.61E+03
same,Remaining Percentage,"[2]; Table 8, 0 min",100.00%
same,Remaining Percentage,"[2]; Table 8, 30 min",99.86%
same,Remaining Percentage,"[2]; Table 8, 60 min",104.95%
same,Remaining Percentage,"[2]; Table 8, 120 min",98.41%
same,Remaining Percentage,"[2]; Table 8, 240 min",98.86%
same,half-life,[2]; [4],117 h
same,Peak Area of MRM: 188.7/144.0 (analyte VLS-03-10 Parent),[2]; VLS-03-10 standard,3.46E+03
same,Peak Area of MRM: 188.7/144.0 (analyte VLS-03-10 Parent),Stability in PBS pH 6.5; 0 min,5.32E+03
same,Peak Area of MRM: 188.7/144.0 (analyte VLS-03-10 Parent),Stability in PBS pH 6.5; 30 min,4.68E+03
same,Peak Area of MRM: 188.7/144.0 (analyte VLS-03-10 Parent),Stability in PBS pH 6.5; 60 min,5.00E+03
same,Peak Area of MRM: 188.7/144.0 (analyte VLS-03-10 Parent),Stability in PBS pH 6.5; 120 min,4.72E+03
same,Peak Area of MRM: 188.7/144.0 (analyte VLS-03-10 Parent),Stability in PBS pH 6.5; 240 min,4.95E+03
same,Remaining Percentage,"Stability in PBS pH 6.5; Table 8, 0 min",100.00%
same,Remaining Percentage,"Stability in PBS pH 6.5; Table 8, 30 min",92.62%
same,Remaining Percentage,"Stability in PBS pH 6.5; Table 8, 60 min",100.03%
same,Remaining Percentage,"Stability in PBS pH 6.5; Table 8, 120 min",92.63%
same,Remaining Percentage,"Stability in PBS pH 6.5; Table 8, 240 min",97.66%
same,Peak Area of MRM: 188.7/144.0 (analyte VLS-03-10 Parent),Stability in PBS pH 6.5; VLS-03-10 standard,4.34E+03
same,half-life,physchem,331 h
same,Peak Area of MRM: 188.7/144.0 (analyte VLS-03-10 Parent),[3]; 0 min,5.13E+03
same,Peak Area of MRM: 188.7/144.0 (analyte VLS-03-10 Parent),[3]; 30 min,5.10E+03
same,Peak Area of MRM: 188.7/144.0 (analyte VLS-03-10 Parent),[3]; 60 min,5.25E+03
same,Peak Area of MRM: 188.7/144.0 (analyte VLS-03-10 Parent),[3]; 120 min,5.32E+03
same,Peak Area of MRM: 188.7/144.0 (analyte VLS-03-10 Parent),[3]; 240 min,5.28E+03
same,Remaining Percentage,"[3]; Table 8, 0 min",100.00%
same,Remaining Percentage,"[3]; Table 8, 30 min",96.82%
same,Remaining Percentage,"[3]; Table 8, 60 min",93.09%
same,Remaining Percentage,"[3]; Table 8, 120 min",91.42%
same,Remaining Percentage,"[3]; Table 8, 240 min",89.32%
same,half-life,[3]; [4],26.7 h
same,Peak Area of MRM: 188.7/144.0 (analyte VLS-03-10 Parent),[3]; VLS-03-10 standard,4.05E+03
